Holding throughout (test): NCI anticancer screen, dose series, 48 h
Assay [1] concerns A549.
Assay [2] relates to ACHN.
Assay [3] concerns EKVX.
Assay [4] relates to HCC 2998.
Assay [5] deals with HOP-92.
Assay [6] has as its system KM-20L2.
Assay [7] concerns KM12.
Assay [8] has as its system LXFL 529.
Assay [9] deals with NCI-H23.
The subject of assay [10] is NCI-H460.
Assay [11] has as its system RPMI-8226.
In assay [12] the test system is SF-295.
Assay [13] relates to SK-MEL-5.
The test system of assay [14] is SNB-19.
Assay [15] concerns TK-10.
Assay [16] relates to UACC-257.
Assay [17] deals with UO-31.
The subject of assay [18] is T47D.

SMILES strings stand for the structures.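 Where inhibition never reached the appropriate level, the endpoint shown equals the highest concentration tested. Otherwise, values were interpolated linearly from a five-concentration, 48-hour dose response in 96-well plates. Abbreviation: GI50, concentration required for 50% inhibition of growth.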 The source made the active and inactive calls. No stated cut-off is given here; in the data, active = GI50 up to about 1.1 µM and inactive = higher.

With `COc1ccc(NC(=O)/C(Cc2nc3ccccc3nc2O)=N\O)c(OC)c1`, the GI50 in [1], in [2], in assay [3], in assay [4], in assay [5] and in assay [6] was > 100 µM (inactive) in each case. Besides, the GI50 in [7], in assay [8], in assay [9], in assay [10], in [11] and in assay [12] was > 100 µM (inactive) each time. Also, the GI50 in [13], in [14], in [15], in assay [16] and in [17] was > 100 µM (inactive) throughout.
With `COc1ccc([C@@H]2CC(=O)NCCCCNCCCN2)cc1`, the GI50 in assay [1] was > 100 µM (inactive); in assay [2], > 100 µM (inactive); in assay [3], > 100 µM (inactive); in [4], 0.0131 µM (active); in assay [5], > 100 µM (inactive); in assay [6], > 100 µM (inactive). Also, the GI50 in [7], in assay [8], in [9], in assay [10], in [11] and in assay [12] was > 100 µM (inactive) in each case. Besides, the GI50 in assay [13], in assay [14], in assay [15], in assay [16] and in assay [17] was > 100 µM (inactive) each time.
In the case of `CCN(CC)CCCCC1CCN(CC(=O)N2c3ccccc3NC(=O)CC2C)CC1` (stereo not given), the GI50 in [1], in [2], in [3], in assay [4], in [5] and in [6] was > 100 µM (inactive) in each case. Also, the GI50 in assay [7] is > 100 µM (inactive); in [8] it was > 100 µM (inactive); in [9], > 100 µM (inactive); in assay [10], > 100 µM (inactive); in [11], 88.1 µM (inactive); in assay [12], > 100 µM (inactive). Also, the GI50 in [13] is 98.4 µM (inactive); in [14], > 100 µM (inactive); in assay [15], > 100 µM (inactive); in assay [16], > 100 µM (inactive); in assay [17] it was > 100 µM (inactive).
`CCCCCCCCCCCCCC(=O)OCC1OC(n2cc(F)c(=O)[nH]c2=O)C(N)C(OC(=O)CCCCCCCCCCCCC)C1O` (stereo not given): the GI50 in assay [1], in [2], in [3], in assay [4], in assay [5] and in [6] was > 100 µM (inactive) throughout. For the same compound, the GI50 in [7], in assay [8], in assay [9], in assay [10], in assay [11] and in assay [12] was > 100 µM (inactive) throughout. Further, the GI50 in assay [13], in assay [14], in [15], in assay [16] and in assay [17] was > 100 µM (inactive) each time.
Turning to `CC1=NN(C(=O)CC(=O)N(C(=O)c2ccccc2Cl)c2ccc(C)cc2)C(=O)C1/N=N/c1ccc([N+](=O)[O-])cc1` (stereo not given), the GI50 in assay [1] is 34.1 µM (inactive); in assay [2], > 53.7 µM (inactive); in assay [3], > 72.9 µM (inactive); in assay [4] it was > 100 µM (inactive); in assay [5] it was 36.6 µM (inactive); in assay [6] it was > 55.6 µM (inactive). In addition, the GI50 in assay [7] was > 65.5 µM (inactive); in assay [8], 49.4 µM (inactive); in assay [9], 47.3 µM (inactive); in [10], > 47.3 µM (inactive); in [11] it was > 50.4 µM (inactive); in assay [12], 58.5 µM (inactive). The GI50 is 99.1 µM (inactive) in [13]; 53.1 µM (inactive) in assay [14]; 49.5 µM (inactive) in assay [15]; > 78.3 µM (inactive) in assay [16]; 44 µM (inactive) in [17].
As for `O=C(/C=C/c1ccccc1Cl)c1cccc2ccccc12`, the GI50 in assay [1] is 16.7 µM (inactive); in assay [2], 16.7 µM (inactive); in assay [3], 12.8 µM (inactive); in assay [4] it was 14.5 µM (inactive); in [5], 20.3 µM (inactive); in [6], 7.06 µM (inactive). Further, the GI50 in assay [7] was 5.24 µM (inactive); in [8], 3.06 µM (inactive); in [9], 12.6 µM (inactive); in assay [10], 2.82 µM (inactive); in assay [11], 17.2 µM (inactive); in [12] it was 12.5 µM (inactive). In addition, the GI50 in [13] was 19.4 µM (inactive); in assay [14], 4.69 µM (inactive); in assay [15] it was 15.8 µM (inactive); in assay [16], 18 µM (inactive); in assay [17], 9.2 µM (inactive).
On to `O=C1CC2CCCC23CC2(CCN13)OCCO2` (stereo not given), for which the GI50 in assay [1], in assay [2], in [3], in assay [4], in [5] and in [6] was > 100 µM (inactive) in each case. Besides, the GI50 in assay [7], in assay [8], in assay [9], in [10], in assay [11] and in [12] was > 100 µM (inactive) in each case. Also, the GI50 in [13], in assay [14], in assay [15], in [16] and in [17] was > 100 µM (inactive) in each case.
As for `COc1ccc(C(=O)C2=NON3OC23C(=O)c2ccc(OC)cc2)cc1` (stereo not given), the GI50 was 22.4 µM (inactive) in assay [1]; 17.5 µM (inactive) in assay [2]; 19.3 µM (inactive) in assay [3]; 18.1 µM (inactive) in [4]; 2.59 µM (inactive) in [5]; 19.1 µM (inactive) in [6]. Further, the GI50 in assay [7] is 19.2 µM (inactive); in assay [8], 2.63 µM (inactive); in assay [9], 13.2 µM (inactive); in assay [10], 20.6 µM (inactive); in assay [11] it was 3.37 µM (inactive); in assay [12], 19.2 µM (inactive). For the same compound, the GI50 in assay [13] is 14.1 µM (inactive); in [14], 15.9 µM (inactive); in [15], 19.7 µM (inactive); in [16], 18.9 µM (inactive); in [17], 14.1 µM (inactive).
For the compound `CCOP(=O)(OCC)/C(C#N)=C\c1ccsc1`, the GI50 in [1], in assay [2], in assay [3], in assay [4], in [5] and in assay [6] was > 100 µM (inactive) throughout. The GI50 in assay [7], in [8], in assay [9], in [10], in [11] and in assay [12] was > 100 µM (inactive) in each case. Also, the GI50 in assay [13], in assay [14], in assay [15], in [16] and in assay [17] was > 100 µM (inactive) throughout.
As for `COc1ccc(C(=O)C#Cc2cnc(O)nc2O)cc1`, the GI50 was 20.7 µM (inactive) in assay [1]; 14.8 µM (inactive) in assay [2]; 19.4 µM (inactive) in assay [3]; 18.7 µM (inactive) in assay [4]; 21.4 µM (inactive) in assay [5]; 9.86 µM (inactive) in [6]. Also, the GI50 is 18.7 µM (inactive) in [7]; 3.36 µM (inactive) in assay [8]; 14.6 µM (inactive) in assay [9]; 25.1 µM (inactive) in [10]; 13.3 µM (inactive) in assay [11]; 33 µM (inactive) in assay [12]. Further, the GI50 in [13] was 13.5 µM (inactive); in assay [14], 17.5 µM (inactive); in assay [15], 9.31 µM (inactive); in assay [16], 11.9 µM (inactive); in assay [17] it was 17.2 µM (inactive).
As to `COc1ccc(CCc2cc(OC)cc(OC)c2)cc1`, the GI50 in [1] is 19.2 µM (inactive); in assay [2] it was 58.5 µM (inactive); in assay [3], 45.1 µM (inactive); in assay [4] it was 10.2 µM (inactive); in [5] it was 38.3 µM (inactive); in [6], 13.6 µM (inactive). Besides, the GI50 in [7] was 4.92 µM (inactive); in [8], 32.9 µM (inactive); in assay [9] it was 24.2 µM (inactive); in assay [10], 22 µM (inactive); in assay [11] it was 16.1 µM (inactive); in assay [12], 22.6 µM (inactive). For the same compound, the GI50 in [13] is 19.2 µM (inactive); in assay [14] it was > 100 µM (inactive); in assay [15] it was 54.2 µM (inactive); in [16], 51.4 µM (inactive); in [17], 52.7 µM (inactive).
On to `CC[C@@]1(O)C(=O)OCc2c1cc1n(c2=O)Cc2cc3c(OC)cccc3nc2-1`, for which the GI50 in assay [3] is 2.04 µM (inactive); in assay [5], 0.0432 µM (active); in assay [6] it was 0.0622 µM (active); in assay [7] it was 0.867 µM (active); in [8] it was 0.492 µM (active); in assay [9] it was < 0.1 µM (active). Also, the GI50 in assay [11] is 0.0158 µM (active); in assay [12], < 0.1 µM (active); in assay [13] it was 0.116 µM (active); in assay [14], < 0.1 µM (active); in assay [18], 0.0194 µM (active); in assay [15], 3.74 µM (inactive). For the same compound, the GI50 in assay [16] is 0.558 µM (active).

Values taken from ChEMBL document CHEMBL1201862, “PubChem BioAssay data set” (2004).
